The melting point is the temperature, or range, at which the solid turns liquid.

Melting point data for 36 compounds are collected here from US7229987B2, “Multicyclic compounds for use as melanin concentrating hormone antagonists in the treatment of obesity and diabetes” (Eli Lilly and Company, priority 2002, dated 2007).

Where only a bound is given, the exact number is not on record here.

Compound `CN(C)CCCCCOc1ccc(-c2nnc(CSCCOc3ccccc3)o2)cc1` [Example 69, dimethyl-(5-{4-[5-(2-phenoxy-ethylsulfanylmethyl)-[1,3,4]oxadiazol-2-yl]-phenoxy}-pentyl)-amine] registered a melting point of 51 to 54 °C.
Consider `CN(C)CCCCCCCOc1ccc(-c2nnc(CSCCOc3ccccc3)o2)cc1` [Example 71, dimethyl-(7-{4-[5-(2-phenoxy-ethylsulfanylmethyl)-[1,3,4]oxadiazol-2-yl]-phenoxy}-heptyl)-amine], for which the melting point is 39 to 40 °C.
Take `c1ccc(OCCSCc2nnc(-c3ccc(OCCN4CCCCC4)cc3)o2)cc1` [Example 72, 1-(2-{4-[5-(2-phenoxy-ethylsulfanylmethyl)-[1,3,4]oxadiazol-2-yl]-phenoxy}-ethyl)-piperidine]: the melting point was 70 °C.
Compound `CC(C)N(CCOc1ccc(-c2nnc(CSCCOc3ccccc3)o2)cc1)C(C)C` [Example 73, diisopropyl-(2-{4-[5-(2-phenoxy-ethylsulfanylmethyl)-[1,3,4]oxadiazol-2-yl]-phenoxy}-ethyl)-amine] displayed a melting point of 42 to 45 °C.
Take `c1ccc(OCCSCc2nnc(-c3ccc(OCCN4CCOCC4)cc3)o2)cc1` [Example 74, 4-(2-{4-[5-(2-phenoxy-ethylsulfanylmethyl)-[1,3,4]oxadiazol-2-yl]-phenoxy}-ethyl)-morpholine]: the melting point was in the range of 70 to 72 °C.
`c1ccc(OCCSCc2nnc(-c3ccc(OCCCN4CCCCC4)cc3)o2)cc1` [Example 75, 1-(3-{4-[5-(2-phenoxy-ethylsulfanylmethyl)-[1,3,4]oxadiazol-2-yl]-phenoxy}-propyl)-piperidine] came in with a melting point of 65 °C.
`c1ccc(OCCSCc2nnc(-c3ccc(OCCN4CCCC4)cc3)o2)cc1` [Example 76, 2-(2-phenoxy-ethylsulfanylmethyl)-5-[4-(2-pyrrolidin-1-yl-ethoxy)-phenyl]-[1,3,4]oxadiazole] displayed a melting point of 65 °C.
Next, `CNCCCOc1ccc(-c2nnc(CSCCOc3ccccc3)o2)cc1` [Example 77, methyl-(3-{4-[5-(2-phenoxy-ethylsulfanylmethyl)-[1,3,4]oxadiazol-2-yl]-phenoxy}-propyl)-amine]: 40 to 44 °C; `CCN(CC)CCCOc1ccc(-c2nnc(CSCCOc3ccccc3)o2)cc1` [Example 78, diethyl-(3-{4-[5-(2-phenoxy-ethylsulfanylmethyl)-[1,3,4]oxadiazol-2-yl]-phenoxy}-propyl)-amine]: 27 to 31 °C; `c1ccc(OCCSCc2nnc(-c3ccc(OCCCCN4CCCC4)cc3)o2)cc1` [Example 80, 2-(2-phenoxy-ethylsulfanylmethyl)-5-[4-(4-pyrrolidin-1-yl-butoxy)-phenyl]-[1,3,4]oxadiazole]: 45 °C.
On to `c1ccc(OCCSCc2nnc(-c3ccc(OCCCCN4CCCCC4)cc3)o2)cc1` [Example 81, 1-(4-{4-[5-(2-phenoxy-ethylsulfanylmethyl)-[1,3,4]oxadiazol-2-yl]-phenoxy}-butyl)-piperidine], for which the melting point was in the range of 57 to 62 °C.
In turn, `c1ccc(OCCSCc2nnc(-c3ccc(OCCCN4CCSCC4)cc3)o2)cc1` [Example 82, 4-(3-{4-[5-(2-phenoxy-ethylsulfanylmethyl)-[1,3,4]oxadiazol-2-yl]-phenoxy}-propyl)-thiomorpholine] registered a melting point of 85 °C.
For `c1ccc(OCCSCc2nnc(-c3ccc(OCCCN4CCCCCC4)cc3)o2)cc1` [Example 83, 1-(3-{4-[5-(2-phenoxy-ethylsulfanylmethyl)-[1,3,4]oxadiazol-2-yl]-phenoxy}-propyl)-azepane], the melting point came out at 50 °C.
`NCCCOc1ccc(-c2nnc(CSCCOc3ccccc3)o2)cc1` [Example 84, 3-{4-[5-(2-phenoxy-ethylsulfanylmethyl)-[1,3,4]oxadiazol-2-yl]-phenoxy}-propylamine] came in with a melting point of 30 to 35 °C.
Take `CCN(CC)CCOc1ccc(-c2nnc(CSCCOc3ccccc3)o2)cc1` [Example 85, diethyl-(2-{4-[5-(2-phenoxy-ethylsulfanylmethyl)-[1,3,4]oxadiazol-2-yl]-phenoxy}-ethyl)-amine]: the melting point fell in the range of 32 to 35 °C.
For the compound `c1ccc(OCCSCc2nnc(-c3ccc(OCCN4CCCCCC4)cc3)o2)cc1` [Example 86, 1-(2-{4-[5-(2-phenoxy-ethylsulfanylmethyl)-[1,3,4]oxadiazol-2-yl]-phenoxy}-ethyl)-azepane], the melting point came out at 40 °C.
For `c1ccc(OCCSCc2nnc(-c3ccc(OCCCN4CCOCC4)cc3)o2)cc1` [Example 87, 4-(3-{4-[5-(2-phenoxy-ethylsulfanylmethyl)-[1,3,4]oxadiazol-2-yl]-phenoxy}-propyl)-morpholine], the melting point was determined as 65 °C.
`c1ccc(OCCSCc2nnc(-c3ccc(OCCCN4CCCC4)cc3)o2)cc1` [Example 88, 2-(2-phenoxy-ethylsulfanylmethyl)-5-[4-(3-pyrrolidin-1-yl-propoxy)-phenyl]-[1,3,4]oxadiazole] had a melting point of 70 °C.
`c1ccc(OCCSCc2nnc(-c3ccc(OCCCCN4CCCCCC4)cc3)o2)cc1` [Example 89, 1-(4-{4-[5-(2-phenoxy-ethylsulfanylmethyl)-[1,3,4]oxadiazol-2-yl]-phenoxy}-butyl)-azepane] gave a melting point of 35 to 38 °C.
Consider `c1ccc(OCCSCc2nnc(-c3ccc(OCCN4CCSCC4)cc3)o2)cc1` [Example 90, 4-(2-{4-[5-(2-phenoxy-ethylsulfanylmethyl)-[1,3,4]oxadiazol-2-yl]-phenoxy}-ethyl)-thiomorpholine], for which the melting point is 60 °C.
In the case of `c1ccc(OCCSCc2nnc(-c3ccc(OCCCCN4CCOCC4)cc3)o2)cc1` [Example 92, 4-(4-{4-[5-(2-phenoxy-ethylsulfanylmethyl)-[1,3,4]oxadiazol-2-yl]-phenoxy}-butyl)-morpholine], the melting point lay in the range of 64 to 67 °C.
The compound `CCN(CC)CCCCOc1ccc(-c2nnc(CSCCOc3ccccc3)o2)cc1` [Example 93, diethyl-(4-{4-[5-(2-phenoxy-ethylsulfanylmethyl)-[1,3,4]oxadiazol-2-yl]-phenoxy}-butyl)-amine] registered a melting point of 35 to 38 °C.
Regarding `c1ccc(OCCSCc2nnc(-c3ccc(OCCCCN4CCSCC4)cc3)o2)cc1` [Example 94, 4-(4-{4-[5-(2-phenoxy-ethylsulfanylmethyl)-[1,3,4]oxadiazol-2-yl]-phenoxy}-butyl)-thiomorpholine], the melting point is 58 °C.
`CN1CCCC1CCOc1ccc(-c2nnc(CSCCOc3ccccc3)o2)cc1` (stereo not drawn) [Example 96, 2-{4-[2-(1-methyl-pyrrolidin-2-yl)-ethoxy]-phenyl}-5-(2-phenoxy-ethylsulfanylmethyl)-[1,3,4]oxadiazole]: the melting point lay in the range of 46 to 50 °C.
Consider `CN1CCCC(Oc2ccc(-c3nnc(CSCCOc4ccccc4)o3)cc2)CC1` (stereo not drawn) [Example 97, 1-methyl-4-{4-[5-(2-phenoxy-ethylsulfanylmethyl)-[1,3,4]oxadiazol-2-yl]-phenoxy}-azepane], for which the melting point lay within 60 to 61 °C.
Regarding `c1ccc(OCCSCc2nnc(-c3ccc(OCc4ccncc4)cc3)o2)cc1` [Example 98, 4-{4-[5-(2-phenoxy-ethylsulfanylmethyl)-[1,3,4]oxadiazol-2-yl]-phenoxymethyl}-pyridine], the melting point fell in the range of 80 to 90 °C.
With `c1ccc(OCCSCc2nnc(-c3ccc(OCc4ccccn4)cc3)o2)cc1` [Example 99, 2-{4-[5-(2-phenoxy-ethylsulfanylmethyl)-[1,3,4]oxadiazol-2-yl]-phenoxymethyl}-pyridine], the melting point is 115 °C.
Consider `c1ccc(OCCSCc2nnc(-c3ccc(OCc4cccnc4)cc3)o2)cc1` [Example 100, 3-{4-[5-(2-phenoxy-ethylsulfanylmethyl)-[1,3,4]oxadiazol-2-yl]-phenoxymethyl}-pyridine], for which the melting point lay in the range of 111 to 112 °C.
Compound `NC(=O)Nc1ccc(-c2nnc(CSCCOc3ccccc3)o2)cc1` [Example 101, {4-[5-(2-phenoxy-ethylsulfanylmethyl)-[1,3,4]oxadiazol-2-yl]-phenyl}-urea] registered a melting point of over 220 °C.
Next, `O=C(Nc1ccc(-c2nnc(CSCCOc3ccccc3)o2)cc1)N1CCCC1` [Example 103, pyrrolidine-1-carboxylic acid {4-[5-(2-phenoxy-ethylsulfanylmethyl)-[1,3,4]oxadiazol-2-yl]-phenyl}-amide]: 184 to 185 °C; `O=C(NCCN1CCCC1)Nc1ccc(-c2nnc(CSCCOc3ccccc3)o2)cc1.O=C(O)C(=O)O` [Example 106, 1-{4-[5-(2-phenoxy-ethylsulfanylmethyl)-[1,3,4]oxadiazol-2-yl]-phenyl}-3-(2-pyrrolidin-1-yl-ethyl)-urea oxalate]: 111 to 115 °C.
Regarding `O=C(NCCN1CCCCC1)Nc1ccc(-c2nnc(CSCCOc3ccccc3)o2)cc1` [Example 107, 1-{4-[5-(2-phenoxy-ethylsulfanylmethyl)-[1,3,4]oxadiazol-2-yl]-3-phenyl}-3-(2-piperidin-1-yl-ethyl)-urea], the melting point is 126 to 128 °C.
Next, `Nc1ccc(-c2nnc(CSCCOc3ccccc3)o2)cc1` [Example 116, 4-[5-(2-phenoxy-ethylsulfanylmethyl)-[1,3,4]oxadiazol-2-yl]-phenylamine]: 126 to 130 °C; `CN(C)CCNC(=S)Nc1ccc(-c2nnc(CSCCOc3ccccc3)o2)cc1` [Example 117, 1-(2-dimethylamino-ethyl)-3-{4-[5-(2-phenoxy-ethylsulfanylmethyl)-[1,3,4]oxadiazol-2-yl]-phenyl}-thiourea]: 155 to 158 °C.
Next, `CN(C)CCCNC(=S)Nc1ccc(-c2nnc(CSCCOc3ccccc3)o2)cc1` [Example 118, 1-(3-dimethylamino-propyl)-3-{4-[5-(2-phenoxy-ethylsulfanylmethyl)-[1,3,4]oxadiazol-2-yl]-phenyl}-thiourea]: 136 to 139 °C; `CN(C)CCCOc1ccc(-c2nnc(CSCCOc3ccccc3)n2Cc2ccccc2)cc1.O=C(O)C(=O)O` [Example 246, (3-{4-[4-benzyl-5-(2-phenoxyethylsulfanylmethyl)-4H-[1,2,4]triazol-3-yl]-phenoxy}-propyl)-dimethyl-amine, oxalic acid salt]: 88 to 92 °C.
